Test results: US20210308137A1, “ANTIVIRAL COMPOUNDS AND METHOD FOR TREATING HEPATOTROPIC VIRAL INFECTION, PARTICULARLY HEPATITIS B AND HEPATITIS D” (priority 2020, published 2021)

Columns and labels:
[1] = Cell viability MTT assay in Vero E6 cells; assay type: cell-based; conditions: African green monkey
Protocol: (§1) HepG2.2.15 and HuS-E/2 cells were seeded at 1×10^4 cells/well in a 96-well plate for 20 h, then the cells were treated with the tested compounds at various concentration (0-500 μM) for 48 h. After the treatment, cell viability was examined using MTT [3-(4,5-dimethylthiazol-2-yl)-2,5-diphenyl tetrazolium bromide] assay (Sigma Chemical Co.). Briefly, a final concentration of 0.5 mg/ml MTT was added to each well and the samples were incubated for 1 h at 37° C., and then the supernatant was aspirated. The MTT-formazan crystals formed by metabolically viable cells were dissolved in 70 μl of DMSO, and the absorbance at 550 nm was measured on a microplate reader.
(§2) The compounds used were SH-001, SH-002, and SH-003. Before testing their potential antiviral effect on HBV and HDV infection, we first examined their toxicity on VeroE6 cells, HepG2.2.15 cells and HuS-E/2 immortalized human primary hepatocytes cells at concentration from 0 to 320 μM as indicated.

[2] = tested on: HBV; test: Inhibition of HBV replication in HepG2.2.15 cells (HBsAg and HBeAg by ELISA, HBV DNA by real-time PCR); assay type: cell-based, Hepatitis B virus (ayw subtype); conditions: 48 h; for HBeAg levels reduced to (percentage of non-drug-treated control) / HBsAg levels reduced to (percentage of non-drug-treated control) / amount of HBV DNA in culture medium: 10 μM; for HBeAg levels reduced to (percentage of non-drug-treated control) / HBsAg levels reduced to (percentage of non-drug-treated control): culture medium; for HBeAg levels reduced to (percentage of non-drug-treated control) / HBsAg levels reduced to (percentage of non-drug-treated control) / levels of HBeAg in the culture supernatant (in words) / levels of HBsAg in the culture supernatant (in words) / IC50: ELISA; for amount of HBV DNA in culture medium: untreated cells 3.43*10^5 copies/ml; for levels of HBeAg in the culture supernatant (in words) / levels of HBsAg in the culture supernatant (in words) / HBV DNA (in words) / IC50: HepG2.2.15 cells; for HBV DNA (in words): Q-PCR, dose-dependent; for IC50: Hepatitis B virus, estimated
Description: Plasmid p1.3HBcl, which contains a 1.3-fold HBV genome (ayw subtype), was used as standard in parallel PCR reactions. The results are expressed as a percentage of the non-drug-treated positive control (NT) and are shown as mean±SD for three independent experiments.
Continuous HBV proliferation can be achieved in HepG2.2.15 cells (RRID:CVCL_L855) stably transfected with the HBV genome of the ayw subtype. HepG2.2.15 cells were maintained in Dulbecco's modified Eagle medium (DMEM; Invitrogen) supplemented with 10% heat-inactivated fetal bovine serum (FBS; Thermo) plus 100 units of penicillin and 100 μg of streptomycin per ml (both from Invitrogen).
The viruses were then collected from the supernatant. Q-PCR was used to detect HBV DNA as an index of efficiency of HBV replication. Next, the HBV HBsAg and HBeAg were examined by ELISA assay.
The culture medium from compound-treated HepG2.2.15 cells was clarified by centrifugation at 1,000×g at 4° C. for 10 min, and then the supernatant was layered on top of a 20% sucrose cushion (20% sucrose, 20 mM HEPES, pH 7.4, 0.1% bovine serum albumin [BSA]) and centrifuged at 197,000×g for 3 h at 4° C. to pellet the HBV particles. The particles were then concentrated 100 fold to detect HBV DNA.
Q-PCR was performed to detect HBV DNA as an efficiency index of HBV replication. Moreover, the HBV HBsAg and HBeAg were examined by ELISA assay.

[3] = tested on: HDV; test: Inhibition of HDV infection/replication in HuS-E/2 cells (HDV RNA by real-time PCR); conditions: for HDV RNA levels reduced to (percentage of non-drug-treated control): HuS-E/2 cells, 18 h infection + 48 h; for IC50: Hepatitis delta virus, HuS-E/2, read-out: IC50 (HDV RNA); for HDV replication (in words): HuS-E/2 human hepatocytes
Protocol: HDV genome was measured by RT-PCR and expressed as the percentage of the value for the non-drug-treated controls (NT). Control PCRs were performed for endogenous GAPDH mRNA as the loading control. […] The results are the mean±SD for three independent experiments.
HuS-E/2 cells that retain primary hepatocyte characteristics after prolonged culture were utilized for HDV infection. For HDV infection, HuS-E/2 cells were differentiated with 1% DMSO for 5-7 days, and HDV virus particles were added to infect and replicate in HuS-E/2 cells (MOI=10) as described by Huang et al. (J Virol. 2012 September; 86(17):9443-53. Epub 2012 Jun. 27) The HuS-E/2 cells are useful to assay infectivity of HDV, and screening of anti-HDV agents.
The compounds were added to the medium at the indicated concentration during infection with HDV for 18 h, then the infected cells were incubated in medium containing the compounds for further 48 h. Real-time PCR was performed to detect HDV RNA as an efficiency index of HDV infection.
Total DNA was extracted with a Genomic DNA isolation kit (Nexttec Biotechnologie, Germany). Total RNA was isolated from cultured cells using TRIzol® reagent (Invitrogen). Reverse transcription was performed with the RNA templates, AMV reverse transcriptase (Roche), and oligo-dT primer. The products were subjected to real-time PCR with primer sets of specific genes and SYBR Green PCR Master Mix (Bio-Rad). The primer sets used for HBV DNA and HDV RNA were as described by Huang et al. (J Virol. 2012 September; 86(17):9443-53. Epub 2012 Jun. 27) The results were analyzed with the iCycler iQ real-time PCR detection system (Bio-Rad).
The infected cells were then washed and incubated in medium containing the tested compounds for further 48 h, and real-time PCR was used to detect HDV mRNA as an efficiency index of HDV infection.

[4] = Cell viability MTT assay in HuS-E/2 cells; assay type: cell-based; conditions: human
Protocol: as §1, §2

[5] = tested on: HBV; test: In vitro antiviral IC50 compared with Lamifudine in the same human liver cell line; assay type: cell-based; conditions: human liver cell line as the host
Description: The potency difference is significant.

[6] = Cell viability MTT assay in HepG2.2.15 cells; assay type: cell-based; conditions: human, 0-320 μM
Protocol: as §1, §2

| SMILES | CC50 at 48 h [1] [µM] | HBeAg levels reduced to (percentage of non-drug-treated control) [2] [%] | HBsAg levels reduced to (percentage of non-drug-treated control) [2] [%] | amount of HBV DNA in culture medium [2] | levels of HBeAg in the culture supernatant (in words) [2] | levels of HBsAg in the culture supernatant (in words) [2] | HBV DNA (in words) [2] | IC50 ([2]; read-out: IC50 (HBeAg)) [µM] | IC50 ([2]; read-out: IC50 (HBsAg)) [µM] | IC50 [3] [µM] | HDV replication (in words) [3] | IC50 ([5]; Hepatitis B virus) [µM] | CC50 at 48 h [6] [µM] | also measured |
| --- | --- | --- | --- | --- | --- | --- | --- | --- | --- | --- | --- | --- | --- | --- |
| CC(N)C(=O)OCN1C(=O)N/C(=C\c2cnn3c(NC4CC4)cc(Nc4cc(Cl)ccc4F)nc23)C1=O (stereo not shown) [SH-003] | > 205 | – | – | – | – | – | – | – | – | – | – | – | – | – |
| O=C(O)c1ccc2c(c1)nc(Nc1cccc(Cl)c1)c1ccncc12 [SH-001, Silmitasertib] | – | 53.66±3.02 | 39.85±1.78 | 5.51*10^4 copies/ml | significantly decreased | significantly decreased | repressed | 12 | 6.63 | ~0.146 | significantly inhibited | ≥ 0.005 | > 195 | HDV RNA levels reduced to (percentage of non-drug-treated control) ([3]; 2.5 μM): 28.8±22.8%; HDV RNA levels reduced to (percentage of non-drug-treated control) ([3]; 5 μM): 8.7±1.3%; CC50 at 48 h ([4]; HuS-E/2 cells, 48 h, MTT, 0-320 μM, read-out: CC50): > 195 µM; CC50 at 48 h ([1]; VeroE6 cells, 48 h, MTT, 0-320 μM, read-out: CC50): > 205 µM |
| O=C1NC(=O)/C(=C/c2cnn3c(NC4CC4)cc(Nc4cc(Cl)ccc4F)nc23)N1 [SH-002] | > 61.3 | 61.18±6.43 | 52.01±3.05 | 3.13*10^4 copies/ml | significantly decreased | significantly decreased | repressed | 168 | 11.8 | ~0.069 | significantly inhibited | ≥ 0.005 | > 164 | HDV RNA levels reduced to (percentage of non-drug-treated control) ([3]; 0.1 μM): 53.1±16.8%; HDV RNA levels reduced to (percentage of non-drug-treated control) ([3]; 0.2 μM): 40.8±18.6%; CC50 at 48 h [4]: > 164 µM |
| Nc1ccn([C@@H]2CS[C@H](CO)O2)c(=O)n1 [Lamifudine, reference compound] | – | – | – | – | – | – | – | – | – | – | – | – | – | IC50 [5]: 0.358 µM |
